{
  "source": "patent US20250295795A1",
  "about": "“PEPTIDE” (priority 2021, published 2025)",
  "key": {"[1]": {"assay": "MTT assay of metabolic activity (cell viability)", "format": "cell-based", "conditions": "human, HeLa cells, 1 μM for 60 min", "experimental": "Toxicity is a concern with potent intracellular delivery agents. We used an MTT assay to measure the metabolic activity of Hela cells treated with 1 μM tri-Tat A or tri-cTat B for 60 min (FIG. 4d). […] Tri-Tat A is slightly more toxic, which is consistent with the observation that the trimer forms membrane pores (cells 84.4% viable, 4 h post-treatment; 80.2% viable, 3 days post-treatment). The favourable uptake mechanism and low toxicity of tri-cTat B lead us to investigate this agent for its potential to transport biomacromolecular cargos into cells."}, "HeLa cells [2]": {"test_system": "HeLa cells", "assay": "Membrane integrity / porosity: propidium iodide uptake after trimer treatment", "format": "cell-based, human", "conditions": "1 μM trimer; 40 μM PI added 20 min after trimer", "experimental": "To assess membrane integrity, 40 μM propidium iodide (PI; a cell impermeable dye), was added to Hela cells 20 min after the addition of the peptide trimer."}, "HeLa cells [3]": {"test_system": "HeLa cells", "assay": "Co-delivery of antibodies, antibody fragments and RFP into live Hela cells", "format": "cell-based, human", "description": "Access to the cytosol by mechanisms that are independent of transmembrane pore formation constitutes a preferred method of co-delivery due to reduced toxicity to the cell. […] Successful delivery of Fab is indicated by homogenous distribution of AF647 signal in the cytosol and nucleus and is only observed in cells which have been transduced with tri-cTat B (FIG. 13). Time course of Fab uptake by tri-cTat B (FIG. 5c) follows a similar pattern as tri-cTat B alone (FIG. 3b, d). Tri-cTat B and Fab form large vesicle-like bodies that appear to release their contents into the cytosol of the cell; unambiguous cytosolic staining by Fab is observed from 23 min. Interaction between peptide trimer and biomacromolecule, mediated by charge-charge interactions is essential for the accumulation of both in endosomes and subsequent release and delivery of cargo into cells. Delivery of relatively β-sheet rich, neutrally charged recombinant RFP was unsuccessful (FIG. 16) due to a lack of association between tri-cTat B and cargo (FIG. 17). On the other hand, interaction diminishes the efficacy of the peptide trimer due to charge masking, emphasising the need to maintain an appropriate peptide to cargo ratio for a given macromolecule. Experiments to explore the efficacy of tri-cTat B in the presence of serum supplemented medium underline this principle; while tri-cTat B continues to function in the presence of serum, the number of transduced cells diminishes (42% (serum) vs. 61% (serum free)), but can be restored by increasing tri-cTat B concentration to 2 μM (79% (serum); FIG. 15). […] This is likely due to the larger size of antibodies and also to the observation that antibodies have a greater tendency to aggregate in the presence of tri-cTat B compared to Fab fragments. […] Finally, we investigated whether it is possible to deliver functional antibodies and antibody fragments into the cytosol and nuclei of cells. β-actin was chosen as a proof-of-principle protein because of its abundance in the cell and formation of distinctive subcellular filaments. To clearly identify actin filaments, Hela cells were transfected with red fluorescent protein fused to actin (actin-RFP) before being incubated with β-actin antibody (mouse IgG2b) or β-actin Fab fragment (mouse) conjugated to AF647 plus tri-cTat B for 30 min. After washing, cells were left for 60 min to allow IgG/Fab to bind to actin filaments. […] To enable objective quantification of co-localization between β-actin filaments and IgG/Fab fragment (white arrows), a co-localization threshold algorithm was used in selected regions of interest (ROI). Pearson's and Manders' coefficients were obtained under Costes' automatic threshold^32 and the co-localized pixels are shown as a mask of yellow pixels of constant intensity (co-localization panels). The significance of the co-localization parameters (Pearson's and Manders' coefficients) was evaluated using the confined displacement algorithm (CDA).\nHeLa and CHO cells were cultured in DMEM supplemented with 10% FBS and penicillin/streptomycin. For post-wash experiments, Tat conjugate was added to the cells in serum free medium, cells incubated at 37° C. in an atmosphere of 5% CO2, culture medium removed at the desired time point, cells washed and transferred to the microscope for imaging. For time course or pre-wash experiments, cells were transferred to the microscope (incubation chamber at 37° C., 5% CO2) and Tat conjugate added directly to cell medium and cells imaged at desired time points. Co-delivery experiments were conducted by adding peptide trimer immediately followed by cargo into serum free medium. Samples were visualised using a Zeiss LSM 780 inverted confocal microscope fitted with a XLmultiS1 incubation chamber and Plan-Apochromat 63×/1.40 Oil DIC M27 objective. Images were analysed using ImageJ software. Digital adjustments and image processing are consistent throughout the manuscript, unless otherwise stated in the figure legend. […]"}, "HeLa cells [4]": {"test_system": "HeLa cells", "assay": "Live cell confocal microscopy: cellular uptake and intracellular distribution of Tat conjugates in HeLa cells", "format": "cell-based, human", "experimental": "The cellular uptake and intracellular distribution of Tat-trimers and monomeric controls was investigated by performing live cell confocal microscopy of HeLa (human, cervical cancer) and CHO (Chinese hamster, […]). Following washing, images were acquired using a Zeiss 780 confocal microscope fitted with an incubation chamber (FIG. 2). In accordance with observations that free Tat in the cytosol readily enters the nucleus and strongly binds to nucleoli,^29 homogenous staining of cytoplasm and nucleoli were considered as indicative of cells having accumulated free conjugate, not confined to endosomes, for quantification purposes. […] The uptake and intracellular distribution of tri-Tat A is similar in live Hela and CHO cells (FIG. 2b,d,e).\nFollowing washing, images were acquired using a Zeiss 780 confocal microscope fitted with an incubation chamber. In accordance with observations that free Tat in the cytosol readily enters the nucleus and strongly binds to nucleoli,^29 homogenous staining of cytoplasm and nucleoli were considered as indicative of cells having accumulated free conjugate, not confined to endosomes, for quantification purposes. The results were compared to tri-Tat A (8) and tri-cTat B (17).\nHeLa and CHO cells were cultured in DMEM supplemented with 10% FBS and penicillin/streptomycin. For post-wash experiments, Tat conjugate was added to the cells in serum free medium, cells incubated at 37° C. in an atmosphere of 5% CO2, culture medium removed at the desired time point, cells washed and transferred to the microscope for imaging. For time course or pre-wash experiments, cells were transferred to the microscope (incubation chamber at 37° C., 5% CO2) and Tat conjugate added directly to cell medium and cells imaged at desired time points. Co-delivery experiments were conducted by adding peptide trimer immediately followed by cargo into serum free medium. Samples were visualised using a Zeiss LSM 780 inverted confocal microscope fitted with a XLmultiS1 incubation chamber and Plan-Apochromat 63×/1.40 Oil DIC M27 objective. Images were analysed using ImageJ software. Digital adjustments and image processing are consistent throughout the manuscript, unless otherwise stated in the figure legend. Statistical analysis was carried out using GraphPad Prism 7 software and all data used for statistical analysis consists of measurements from distinct cells. Where applicable a parametric, unpaired, two-tailed t-test was used for statistical testing."}},
  "note": "Entries after “also recorded” stand apart in the source; their conditions may differ.",
  "data": [
    {"smiles": "N=C(N)NCCC[C@@H]1NC(=O)[C@H](CCCNC(=N)N)NC(=O)[C@H](CCCNC(=N)N)NC(=O)[C@H](CCC(N)=O)NC(=O)[C@H](CCCNC(=N)N)NC(=O)[C@H](CCCNC(=N)N)NC(=O)[C@H](CCCCN)NC(=O)[C@H](CCCCN)NC(=O)[C@H](CCCNC(=N)N)NC(=O)[C@H](CCCCn2cc(COCC(COCc3cn(CCCCCCNC(=O)c4ccc5c(c4)C(=O)OC54c5ccc(N)c(S(=O)(=O)O)c5Oc5c4ccc(N)c5S(=O)(=O)O)nn3)(COCc3cn(CCCC[C@@H]4NC(=O)CC[C@@H](C(N)=O)NC(=O)[C@H](CCCNC(=N)N)NC(=O)[C@H](CCCNC(=N)N)NC(=O)[C@H](CCCNC(=N)N)NC(=O)[C@H](CCC(N)=O)NC(=O)[C@H](CCCNC(=N)N)NC(=O)[C@H](CCCNC(=N)N)NC(=O)[C@H](CCCCN)NC(=O)[C@H](CCCCN)NC(=O)[C@H](CCCNC(=N)N)NC4=O)nn3)COCc3cn(CCCC[C@@H]4NC(=O)CC[C@@H](C(N)=O)NC(=O)[C@H](CCCNC(=N)N)NC(=O)[C@H](CCCNC(=N)N)NC(=O)[C@H](CCCNC(=N)N)NC(=O)[C@H](CCC(N)=O)NC(=O)[C@H](CCCNC(=N)N)NC(=O)[C@H](CCCNC(=N)N)NC(=O)[C@H](CCCCN)NC(=O)[C@H](CCCCN)NC(=O)[C@H](CCCNC(=N)N)NC4=O)nn3)nn2)NC(=O)CC[C@@H](C(N)=O)NC1=O", "note": "(stereo partly drawn) [tri-cTat B]", "values": [
      {"measurement": "viability at 4 h, 1 µM", "setting": "[1]; 4 h post-treatment", "result": 94.3, "unit": "%"},
      {"measurement": "viability at 72 h, 1 µM", "setting": "[1]; 3 days post-treatment", "result": 96.5, "unit": "%"},
      {"measurement": "propidium iodide (PI) uptake / pore formation", "setting": "HeLa cells [2]", "result": "does not form pores in the plasma membrane; also recorded: PI negative"},
      {"measurement": "cells showing homogenous AF647 staining in cytosol and nucleus (whole IgG co-delivery)", "setting": "HeLa cells [3]; 166 nM IgG-AF647 + 1 μM trimer, 45 min", "result": "approximately 20%"},
      {"measurement": "cells with Fab delivered into cytosol and nucleus", "setting": "HeLa cells [3]; 500 nM AF647-labelled non-specific mouse Fab + 1 μM trimer, 30 min", "result": 50, "unit": "%"},
      {"measurement": "time from which unambiguous cytosolic staining by Fab is observed", "setting": "HeLa cells [3]; 500 nM Fab-AF647 + 1 μM trimer", "result": 23, "unit": "min"},
      {"measurement": "delivery of recombinant RFP", "setting": "HeLa cells [3]; 1 μM trimer + 1 or 2 μM recombinant RFP, 30 min, serum free", "result": "unsuccessful"},
      {"measurement": "transduction efficacy in comparison (average fluorescence intensity per cell, percentage of transduced cells)", "setting": "HeLa cells [4]; 1 μM, 60 min, serum-free", "result": "more effective at cellular transduction in comparison to tri-cTat A"},
      {"measurement": "cellular uptake and intracellular distribution", "setting": "HeLa cells [4]; HeLa cells, 1 μM, 60 min, serum-free DMEM, post-wash", "result": "taken up into the cytosol and nucleoli"},
      {"measurement": "number of transduced cells", "setting": "HeLa cells [4]; serum free, 1 μM", "result": 61, "unit": "%"},
      {"measurement": "number of transduced cells", "setting": "HeLa cells [4]; serum supplemented medium, 1 μM, 60 min", "result": 42, "unit": "%"},
      {"measurement": "number of transduced cells", "setting": "HeLa cells [4]; serum supplemented medium, 2 μM, 60 min", "result": 79, "unit": "%"}
    ]}
  ]
}
